For one molecule, IC50 results are on record in BindingDB's records for doi:10.1016/s0960-894x(98)00691-x (Novartis Pharmaceuticals, 1999).

As a reminder, the IC50 is the point on the concentration scale where inhibition reaches its midpoint. Higher therefore signals lower potency.

A short description of this assay: Inhibition of Cyclin-dependent kinase 1, CDK1-related human bladder carcinoma (T24) cell proliferation.

`CCn1cnc2c(Nc3cccc(Cl)c3)nc(N[C@H]3CC[C@@H](O)CC3)nc21` [4-[6-(3-Chloro-phenylamino)-9-ethyl-9H-purin-2-ylamino]-cyclohexanol] showed an IC50 of 830 nM.
